Laboratory results reported in US20060045856A1, “Composition containing a dihydroxyacetone precursor” (priority 2004, published 2006).

Key:
[1] = Maillard browning test, tanning test 2 (aqueous test substance reacted with lysine, with or without lipase); conditions: room temperature; for Maillard browning colour after reacting with lysine: 0.1M aqueous solution or suspension + 1M Lysine aqueous solution; for Maillard browning colour after reacting with lysine, + 1% lipase: aqueous
Text: (§1) The ability of compounds according to formula I to induce an artificial tanning on the skin can roughly be estimated using a simple Maillard browning test. This visual test is based on the principle that the reaction of skin with DHA to produce an artificial tan proceeds through a complex set of reactions (Maillard reaction) with free amino acids of skin proteins, particularly with arguinine, lysine and histidine.
(§2) The tanning ability of 2,5-dipalmitoyloxymethyl-[1,4]dioxane-2,5-diol (A) is evaluated by means of the Maillard browning effect after reacting with lysine in different solvents (water and the cosmetic oil miglyol) and compared with those of reference compounds: DHA and monomeric DHA-palmitic acid monoester (B) under the same conditions. Besides that, the tanning effect of 2,5-dipalmitoyloxymethyl-[1,4]dioxane-2,5-diol in the presence of lipases (enzymes used by the body to hydrolyse fats) is also studied.

[2] = Maillard browning test, tanning test 1 (test substance in miglyol reacted with lysine); conditions: for Maillard browning colour after reacting with lysine: Tanning test 1, 0.1M in miglyol + 1M Lysine aqueous solution, room temperature
Text: as §1, §2

[3] = DHA monomer/dimer content in aqueous solution at elevated temperature; type: physicochemical; conditions: DHA solutions at 30-50° C.
Text: It is assumed that the improved tanning effect at elevated temperatures in the case of 1,3-dihydroxyacetone is connected with the following mechanism. As a raw material, DHA is in the form of a powder and consists of dimers. Dissolved in water, some of the dimers convert to the active monomeric form, which brings about the tanning reaction. At an elevated water temperature, the amount of monomers increases. […] At the same time, the elevated temperature increases the reaction rate of the tanning reaction. […] It is therefore preferred according to the invention when the solution of the self-tanning substance is heated for about 15 min, but at least about 10 min, before the solution is applied to the human skin.

Maillard browning colour after reacting with lysine ([1]; 2 days)	melting point [°C]	Maillard browning colour after reacting with lysine ([1]; 5 h)	Maillard browning colour after reacting with lysine ([1]; 1 day)	Maillard browning colour after reacting with lysine, + 1% lipase ([1]; 1 h)	Maillard browning colour after reacting with lysine, + 1% lipase ([1]; 1 day)	Maillard browning colour after reacting with lysine ([1]; 1 h)	More active DHA monomers present than in DHA solutions at 20° C. [3]	SMILES	Maillard browning colour after reacting with lysine ([2]; 5 h)	Maillard browning colour after reacting with lysine ([2]; 1 day)	Maillard browning colour after reacting with lysine ([2]; 8 days)	Ability to undergo Maillard browning reactions ([2]; overall conclusion from tanning tests 1 and 2)	Maillard browning colour after reacting with lysine ([2]; 1 h)
Brown	95.2	–	–	–	–	–	–	CCCCCCCCCCCCCCCC(=O)OCC1(O)COC(O)(COC(=O)CCCCCCCCCCCCCCC)CO1 (stereo not shown) [A, 2,5-dipalmitoyloxymethyl-[1,4]dioxane-2,5-diol]	Light yellow	Yellow	Brown	able to undergo Maillard browning reactions	–
–	–	Yellow	Brown	Yellow	Brown	–	–	CCCCCCCCCCCCCCCC(=O)OCC(=O)CO [B, monomeric DHA-palmitic acid monoester]	Yellow	Brown	Dark brown	–	Light yellow
–	–	–	–	–	–	Brown	up to 30%	O=C(CO)CO [DHA, 1,3-dihydroxyacetone]	Light yellow	Brown	Dark brown	–	–
